Among the test systems are M14; EKVX; SF-268; NCI/ADR-RES; K562; COLO 205; TK-10; HCC 2998; KM12; MOLT-4; SK-MEL-5; A549; UO-31; SK-MEL-2; SF-295; MCF7; HT-29; MDA-N; SN12C; NCI-H460.
Holding throughout (experiment): DTP human tumour cell line panel, 48 h

Molecules are shown by their SMILES.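 Five concentrations, 48 hours, 96-well plates. GI50 is the concentration that inhibits growth by half.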 The source made the active and inactive calls. Rule as the data show it: active = GI50 up to about 1.1 µM and inactive = higher.

Take `CCCCC(=C=C1CCCCC1O)C1CCCN1C(=O)OC(C)(C)C` (stereo not given): the GI50 was 16.9 µM (inactive) with M14; 14.9 µM (inactive) in the experiment on EKVX; 17.3 µM (inactive) in the experiment on SF-268; 14.3 µM (inactive) in the experiment on NCI/ADR-RES; 17.5 µM (inactive) in the experiment on K562; 17.3 µM (inactive) with COLO 205. The GI50 in the experiment on TK-10 is 16.1 µM (inactive); in the experiment with HCC 2998, 22.1 µM (inactive); in the experiment on KM12, 16.6 µM (inactive); with MOLT-4, 15.8 µM (inactive); in the experiment on SK-MEL-5, 16.6 µM (inactive); in the experiment with A549, 14.9 µM (inactive). The GI50 in the experiment on UO-31 was 21.3 µM (inactive); with SK-MEL-2 it was 16.2 µM (inactive); with SF-295 it was 14.8 µM (inactive); in the experiment with MCF7 it was 17.2 µM (inactive); with HT-29, 14.3 µM (inactive); in the experiment on MDA-N, 16.4 µM (inactive). Further, the GI50 in the experiment on SN12C is 17.8 µM (inactive); in the experiment on NCI-H460 it was 15.5 µM (inactive).
Take `COc1cc2c(=O)cnoc2cc1O`: the GI50 in the experiment on M14, in the experiment with EKVX, in the experiment with SF-268, in the experiment on NCI/ADR-RES, in the experiment on K562 and in the experiment on COLO 205 was > 100 µM (inactive) in each case. The GI50 in the experiment with TK-10, with HCC 2998, in the experiment with KM12, in the experiment on MOLT-4, in the experiment with SK-MEL-5 and in the experiment with A549 was > 100 µM (inactive) throughout. For the same compound, the GI50 with UO-31, with SK-MEL-2, in the experiment on SF-295, in the experiment with MCF7, in the experiment on HT-29 and in the experiment with MDA-N was > 100 µM (inactive) each time. Moreover, the GI50 in the experiment with SN12C and in the experiment with NCI-H460 was > 100 µM (inactive) each time.
In the case of `O/N=C/C1c2ccccc2-c2ccccc21`, the GI50 in the experiment with M14 is 16.9 µM (inactive); with EKVX, 13.6 µM (inactive); in the experiment with SF-268 it was 15.3 µM (inactive); in the experiment on NCI/ADR-RES, 16.8 µM (inactive); in the experiment on K562, 29.9 µM (inactive); in the experiment on COLO 205, 16.6 µM (inactive). Also, the GI50 in the experiment on TK-10 is 18.9 µM (inactive); with HCC 2998, 15.9 µM (inactive); with KM12, 17.4 µM (inactive); with MOLT-4, 24 µM (inactive); with SK-MEL-5, 12.5 µM (inactive); in the experiment on A549 it was 19.2 µM (inactive). Moreover, the GI50 with UO-31 was 15.1 µM (inactive); in the experiment on SK-MEL-2, 17.1 µM (inactive); in the experiment with SF-295 it was 22.5 µM (inactive); in the experiment on MCF7, 16 µM (inactive); in the experiment on HT-29 it was 14.8 µM (inactive); in the experiment on MDA-N, 14.2 µM (inactive). For the same compound, the GI50 with SN12C was 16.4 µM (inactive); in the experiment with NCI-H460, 17.3 µM (inactive).
`CC(=O)O[C@H]1C(=O)[C@@]2(C)[C@H]([C@H](OC(=O)c3ccccc3)[C@]3(O)C[C@H](OC(=O)[C@H](OC(=O)OCCC(O)CO)[C@@H](NC(=O)c4ccccc4)c4ccccc4)C(C)=C1C3(C)C)[C@]1(OC(C)=O)CO[C@@H]1C[C@@H]2O` (stereo not given in full): the concentration for 50% growth inhibition (GI50) in the experiment with M14 was < 0.01 µM (active); in the experiment on EKVX, 0.037 µM (active); in the experiment with SF-268 it was < 0.0111 µM (active); with NCI/ADR-RES it was 3.56 µM (inactive); in the experiment with K562, < 0.01 µM (active); in the experiment on COLO 205 it was < 0.01 µM (active). For the same compound, the GI50 with TK-10 is 0.998 µM (active); in the experiment with HCC 2998, < 0.01 µM (active); in the experiment with KM12 it was < 0.01 µM (active); with MOLT-4 it was < 0.0109 µM (active); in the experiment on SK-MEL-5 it was < 0.01 µM (active); in the experiment on A549 it was < 0.0103 µM (active). Further, the 50% growth inhibitory concentration (GI50) in the experiment on UO-31 was 0.989 µM (active); in the experiment with SK-MEL-2 it was 29 µM (inactive); in the experiment with SF-295 it was 0.0192 µM (active); in the experiment on MCF7, < 0.01 µM (active); in the experiment with HT-29, < 0.01 µM (active); in the experiment with MDA-N, < 0.01 µM (active). For the same compound, the GI50 in the experiment with SN12C and in the experiment with NCI-H460 was < 0.01 µM (active) throughout.

The record behind these values is ChEMBL document CHEMBL1201862, “PubChem BioAssay data set” (2004).
